From the CheMixHub drug solubility set

Assay: xn = mol fraction of the nth substance listed, in the solute-free solvent

O=C1C=CC(=O)N1c1ccccc1Br + CO + O
solubility (g/100 g solution)
Conditions	278.15 K	283.15 K	288.15 K	293.15 K	298.15 K	303.15 K	308.15 K	313.15 K	318.15 K	323.15 K
x2 = 0.05881	0.58	0.746	0.94	1.19	1.47	1.83	2.25	2.74	3.31	4.02
x2 = 0.1233	1.14	1.45	1.86	2.38	2.94	3.7	4.49	5.5	6.69	7.95
x2 = 0.1942	2.04	2.61	3.29	4.1	5.06	6.13	7.47	9.02	10.8	12.7
x2 = 0.2727	3.47	4.29	5.27	6.48	7.79	9.34	11.1	13	15.3	17.7
x2 = 0.3599	4.79	5.85	7.12	8.56	10.2	12	14.3	16.5	19	21.8
x2 = 0.4576	6.01	7.29	8.71	10.5	12.4	14.5	16.9	19.4	22.2	25.4
x2 = 0.5675	7	8.5	10.2	12.2	14.3	16.8	19.5	22.2	25.4	28.6
x2 = 0.6923	7.84	9.53	11.5	13.5	16.1	18.7	21.7	24.7	28.1	31.6
x2 = 0.835	8.75	10.5	12.7	14.9	17.7	20.6	23.8	27.1	30.8	34.6
